The source of these data is ChEMBL document CHEMBL3784936, “Classification of matching molecular series on the basis of SAR phenotypes and structural relationships” (Medchemcomm, 2016).

What is called Ki is the dissociation constant of the complex between target and ligand, obtained from inhibition or displacement. Higher therefore signals a looser hold on the target.

One test has as its target T1, Oxytocin receptor (Homo sapiens, UniProt P30559).
T1 sequence (P30559 whole entry): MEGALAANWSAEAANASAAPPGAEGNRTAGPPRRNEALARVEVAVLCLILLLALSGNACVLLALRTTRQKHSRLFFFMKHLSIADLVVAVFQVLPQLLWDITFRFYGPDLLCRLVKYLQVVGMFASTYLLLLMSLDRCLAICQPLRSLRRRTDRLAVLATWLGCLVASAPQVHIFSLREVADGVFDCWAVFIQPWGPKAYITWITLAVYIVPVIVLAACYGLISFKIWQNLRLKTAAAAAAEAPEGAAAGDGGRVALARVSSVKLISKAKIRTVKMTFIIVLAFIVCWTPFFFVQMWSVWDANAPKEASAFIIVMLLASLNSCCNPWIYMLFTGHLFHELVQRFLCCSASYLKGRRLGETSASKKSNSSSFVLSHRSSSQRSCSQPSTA
The experiment in a line: Inhibition of oxytocin receptor (unknown origin).

A further test addresses T2, Adenosine receptor A3 (Homo sapiens, UniProt P0DMS8).
T2 sequence (P0DMS8 whole entry): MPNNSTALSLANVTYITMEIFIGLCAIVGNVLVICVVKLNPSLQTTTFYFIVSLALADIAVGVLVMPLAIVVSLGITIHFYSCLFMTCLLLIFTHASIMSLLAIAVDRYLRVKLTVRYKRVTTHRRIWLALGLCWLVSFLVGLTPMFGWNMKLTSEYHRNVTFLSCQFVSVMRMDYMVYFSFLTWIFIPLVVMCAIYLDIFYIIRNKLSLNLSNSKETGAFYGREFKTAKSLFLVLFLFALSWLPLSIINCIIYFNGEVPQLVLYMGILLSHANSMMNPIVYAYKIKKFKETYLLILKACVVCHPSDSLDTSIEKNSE
The test is described as follows: Inhibition of adenosine A3 receptor (unknown origin).

Consider `CCCCOc1ccc(S(=O)(=O)N(CC(=O)N/N=C2\C(=O)Nc3ccccc32)c2ccc(Cl)cc2)cc1`, for which the Ki at Oxytocin receptor was 17.8 nM.

Compound `Nc1ncnc2c1ncn2[C@@H]1O[C@H](C(=O)NC2CC2)[C@@H](O)[C@H]1O` gave a Ki on Adenosine receptor A3 of 178 nM.
